In patent US20220073475A1, “5-MEMBERED HETEROARYL COMPOUNDS CONTAINING A HYDROXAMATE MOIETY AND THEIR USE” (UNIVERSITE DE LILLE, priority 2019, published 2022):

What was measured:
OPM2 cells = assay: CFZ potency increase, ratio of CC50 of CFZ alone / with compound; assay type: cell-based, human
Description: Human multiple myeloma cells OPM2 (ACC 50, DSMZ) are maintained at 0.3-0.7 10^6 cells/mL in RPMI1640 medium supplemented with GlutaMAX™, 10% fetal bovine serum and 1% penicillin-streptomycin.
(§1) We developed a cell-based, high content assay allowing the rapid detection and quantification of apoptotic cells. Caspase-3/7 activity was detected in real-time using the NucView™ 488 Caspase-3 substrate (Biotium), where the caspase-3/7 substrate peptide sequence DEVD is attached to a nucleic acid dye. The NucView™ 488 reagent crosses the plasma membrane to enter the cytoplasm, where the dye is unable to bind to DNA and remains non-fluorescent. Once the substrate has been cleaved by activated caspase-3/7 in apoptotic cells, the high-affinity DNA dye is released and migrates to the cell nucleus to stain the nucleus with a bright green fluorescence. All cell nuclei were also labeled with Hoechst 33342 (Ozyme).
For OPM2, briefly, nanoliters of compound and cytotoxic agent in DMSO stock solutions were first transferred and combined in 384-microtiter well plate using an Echo555 liquid handler (Labcyte). The exact volume of each solution to be transferred was calculated to achieve subsequently the target concentration in the 70 μL volume incubate. Final DMSO content was maintained at 0.2%. Then, 70 μL of cells treated with 1 μM NucView™ 488 and 20 ng/mL Hoechst 33342 were distributed to the plates to obtain a final density of 12,000 cells per well. The microplates were incubated at 37° C. and 5% CO2 in an automated LiCONiC STR240 UB cell incubator, and images were acquired at various times at 405 nm and 488 nm with the high-resolution automated confocal microscope INCell 6000 (GE). Four fields per well were read with the 20× objective in a confocal mode. The BioCel workstation was managed by VWorks automation control software
(§2) For all cells, Columbus software (Perkin) was used for image quantification and analysis. First, Hoechst 33342 staining was used for an automated detection of nuclei, in which the mean fluorescence intensity for NucView™ 488 was quantified. Inspection of control cells at initial time was used to set a threshold level of NucView™ 488 fluorescence to separate non apoptotic cells from apoptotic cells. Finally, for each well, the result was expressed as percentage of apoptotic cells in the total cell population. CC50 values were calculated from concentration-response curves by a nonlinear regression analysis at four parameters using Excel Fit or GraphPad Prim softwares.
(§3) Activity=(% of apoptotic cells with cytotoxic agent in combination with compound of the invention)/(% of apoptotic cells with cytotoxic agent alone). • Ratio of CC50: The CC50 of the cytotoxic agent was calculated in absence and in presence of a compound of the invention.
(§4) Activity=(CC50 of agent alone)/(CC50 of agent with compound). • Ratio of AUC. Activity=(Area of the dose-concentration curve of cytotoxic agent combined with one concentration of compound)/(Area of the dose-concentration curve of cytotoxic agent alone). (Lehar J. et al, 2008 (molecular systems biology 4:215)).

HeLa cells = assay: as above; assay type: cell-based, human; conditions: compound at 7.5 μM
Description: Human HeLa cells (uterine cervical carcinoma) are maintained in DMEM medium supplemented with GlutaMAX™, 10% fetal bovine serum and 1% penicillin-streptomycin.
as §1
(§5) For HeLa and MCF7 cells, briefly, cells were seeded in 384-microtiter well plate (1500 HeLa cells or 5000 MCF7 cells in 40 μL full medium per well) and let to attach overnight. Then the compound of the invention and the RE stressor were transferred to the cell culture plate using an Echo555 liquid handler (Labcyte) and 30 μL medium containing NucView™ and Hoechst 33342 were added. Final NucView™ 488 and Hoechst 33342 concentrations were 1 μM and 20 ng/mL, respectively. DMSO content was maintained at 0.2%. The microplates were incubated at 37° C. and 5% CO2 in an automated LiCONiC STR240 UB cell incubator, and images were acquired at various times at 405 nm and 488 nm with the high-resolution automated confocal microscope INCell 6000 (GE). Four fields per well were read with the 20× objective in a confocal mode. The BioCel workstation was managed by VWorks automation control software (Agilent).
as §2, §3, §4

MCF7 cells = assay: as above; assay type: cell-based, human; conditions: MCF7, compound at 15 μM
Experimental: Human epithelial MCF7 cells (mammary gland adenocarcinoma) are maintained in EMEM medium supplemented with GlutaMAX™, 10% fetal bovine serum, 0.01 mg insulin and 1% penicillin-streptomycin.
as §1, §5, §2, §3, §4

TLM1 cells = assay: X-ray radiation in combination with compound, propidium iodide dead cells, ratio of corrected AUC; assay type: cell-based, canine; conditions: for Potency of X-ray radiations in combination with compound (in words): TLM1; for Activity: ratio of corrected AUC of X-ray radiation in combination with compound / corrected AUC of X-ray radiation alone: TLM1, compound at 30 μM
Experimental: Canine melanoma TLM-1 cells are maintained in DMEM medium supplemented with GlutaMAX™, 10% fetal bovine serum, 1× Hepes and 1% penicillin-streptomycin.
TLM-1 cells were seeded with the BioTek MicroFlo™ dispenser in μClear® black 384-well plates (Greiner) at the density of 20,000 cells/mL in 50 μL. Compounds for pre-treatment were added 2 h after the seeding, using an Echo 550 (Labcyte). The next day, cells were washed five times with 40 μL media without phenol red with a plate washer (Hydrospeed, Tecan). Cells were irradiated with 4, 6, 8, 12, 16, 20 and 24 Gray (Gy). […] This step was repeated every 72 h after radiation. Plates were incubated at 37° C. and 5% CO2. […] 4 images per well were collected. Images were analyzed with Columbus software (Perkin Elmer). In this system we used predefined building blocks to measure different parameters on nuclei detected. We applied a threshold based on propidium iodide intensity in nuclei of controls to select and count dead cells. By dividing the number of dead cells by the number of nuclei detected we obtained the percentage of dead cells. AUC were determined in one experiment with triplicate incubates on percentage of cells labelled with propidium iodide and were corrected by the percentage of cells labelled with propidium iodide at 0 Gy. Ratio of AUC corrected was determined as followed: Activity=(Area of the dose-concentration curve of cytotoxic agent combined with one concentration of compound corrected by the effect of the compound alone at 0Gy)/(Area of the dose-concentration curve of radiation alone corrected by the effect of the vehicle at 0Gy).

[1] = OPM2, compound at 7.5 μM (Table 5)
[2] = OPM2, compound at 7.5 μM (Table 6)

SMILES | Activity: ratio (CC50 of CFZ alone)/(CC50 of CFZ in combination with compound of the invention) (OPM2 cells; [1]) | Activity: ratio (CC50 of CFZ alone)/(CC50 of CFZ in combination with compound of the invention) (OPM2 cells; [2]) | Activity: ratio (CC50 of CFZ alone)/(CC50 of CFZ in combination with compound of the invention) (HeLa cells) | Activity: ratio (CC50 of CFZ alone)/(CC50 of CFZ in combination with compound of the invention) (MCF7 cells) | Potency of X-ray radiations in combination with compound (in words) (TLM1 cells) | Activity: ratio of corrected AUC of X-ray radiation in combination with compound / corrected AUC of X-ray radiation alone (TLM1 cells) | Activity: ratio (CC50 of CFZ alone)/(CC50 of CFZ in combination with compound of the invention) (OPM2 cells; OPM2, compound at a concentration of 3.7 μM (Table 5, footnote b))
CC(NC(=O)c1ccc(F)c(F)c1)c1cn([C@@H](CC(=O)NO)Cc2ccc3ccccc3c2)nn1 (stereo in doubt) [Compound 86, 3,4-Difluoro-N-{1-[1-(1(R)-hydroxycarbamoylmethyl-2-naphthalen-2-yl-ethyl)-1H-[1,2,3]triazol-4-yl]-(R)-ethyl}-benzamide] | 1.7 | 1.7 | 2.6 | 1.7 | – | – | –
O=C(C[C@@H](Cc1ccc2ccccc2c1)n1nncc1CNC(=O)c1ccccc1)NO [Compound 12, (R)—N-[3-(1-Hydroxycarbamoylmethyl-2-naphthalen-2-yl-ethyl)-3H-[1,2,3]triazol-4-ylmethyl]-benzamide] | 1.2 | 1.2 | 2.4 | 1.6 | – | – | –
CC(C)C[C@H](NCc1cn([C@@H](CC(=O)NO)Cc2ccc3ccccc3c2)nn1)C(=O)OC(C)(C)C [Compound 20] | 2.1 | 2.1 | 6.3 | 3.4 | – | – | –
O=C(CC(Cc1ccc2ccccc2c1)c1nc(CNC(=O)c2ccc(F)cc2)no1)NO (stereo not drawn) [Compound 27, 4-fluoro-N-[5-(1-hydroxycarbamoylmethyl-2-naphthalen-2-yl-ethyl)-[1,2,4]oxadiazol-3-ylmethyl]-benzamide] | 2.4 | 2.4 | 3.0 | 2.8 | – | – | –
O=C(C[C@@H](Cc1ccc(-c2ccccc2)cc1)n1cc(CNC(=O)c2ccc(F)cc2)nn1)NO [Compound 32, (R)—N-[1-(1-biphenyl-4-ylmethyl-2-hydroxycarbamoyl-ethyl)-1H-[1,2,3]triazol-4-ylmethyl]-4-fluoro-benzamide] | 1.9 | 1.9 | 4.5 | 2.7 | – | – | –
O=C(NCc1cn([C@H](Cc2ccc3ccccc3c2)C(=O)NO)nn1)c1ccc(F)cc1 [Compound 43, (R)-4-Fluoro-N-[1-(1-hydroxycarbamoyl-2-naphthalen-2-yl-ethyl)-1H-[1,2,3]triazol-4-ylmethyl]-benzamide] | 1.7 | 1.7 | 2.6 | 2.6 | – | – | –
O=C(C[C@@H](Cc1ccc2c(c1)CCCC2)n1cc(CNC(=O)c2ccc(F)c(F)c2)nn1)NO [Compound 144, (R)-3,4-difluoro-N-((1-(4-(hydroxyamino)-4-oxo-1-(5,6,7,8-tetrahydronaphthalen-2-yl)butan-2-yl)-1H-1,2,3-triazol-4-yl)methyl)benzamide] | – | – | – | – | increase the potency | 2.4 | 1.8
CC(NC(=O)c1ccc(F)c(F)c1)c1cn([C@@H](CC(=O)NO)Cc2ccc3c(c2)CCCC3)nn1 (stereo partly drawn) [Compound 168, 3,4-difluoro-N-(1-(1-((R)-4-(hydroxyamino)-4-oxo-1-(5,6,7,8-tetrahydronaphthalen-2-yl)butan-2-yl)-1H-1,2,3-triazol-4-yl)ethyl)benzamide] | 2.8 | – | – | – | increase the potency | 2.4 | –
CN(Cc1cn([C@@H](CC(=O)NO)Cc2ccc3c(c2)CCCC3)nn1)C(=O)c1ccc(F)c(F)c1 [Compound 169, (R)-3,4-difluoro-N-((1-(4-(hydroxyamino)-4-oxo-1-(5,6,7,8-tetrahydronaphthalen-2-yl)butan-2-yl)-1H-1,2,3-triazol-4-yl)methyl)-N-methylbenzamide] | 3.3 | – | – | – | increase the potency | 2.5 | –
O=C(C[C@@H](Cc1ccc2ccccc2c1)n1cc(C2CSCN2C(=O)c2ccc(F)cc2)nn1)NO (stereo partly drawn) [Compound 186, (3R)-3-(4-(3-(4-fluorobenzoyl)thiazolidin-4-yl)-1H-1,2,3-triazol-1-yl)-N-hydroxy-4-(naphthalen-2-yl)butanamide] | 2.9 | – | – | – | increase the potency | 2.0 | –
O=C(C[C@@H](Cc1ccc2ccccc2c1)n1cc(C2CCCCN2C(=O)c2ccc(F)cc2)nn1)NO (stereo partly drawn) [Compound 187, (3R)-3-(4-(1-(4-fluorobenzoyl)piperidin-2-yl)-1H-1,2,3-triazol-1-yl)-N-hydroxy-4-(naphthalen-2-yl)butanamide] | 3.4 | – | – | – | increase the potency | 2.4 | –
